This passage reports cAMP increase and bone increase results from patent publication US6025467A, “Parathyroid hormone derivatives and their use” (Takeda Chemical Industries, Ltd., priority 1995, dated 2000).

The target in one assay is T1, PTH receptor (Mus musculus, UniProt P41593).
T1 construct: a mouse cranial bone-derived osteoblast-like cell strain, MC3T3-EI cells; endogenous in cells; host or cells: MC3T3-E1 mouse osteoblast-like cells
T1 sequence (P41593 27-591): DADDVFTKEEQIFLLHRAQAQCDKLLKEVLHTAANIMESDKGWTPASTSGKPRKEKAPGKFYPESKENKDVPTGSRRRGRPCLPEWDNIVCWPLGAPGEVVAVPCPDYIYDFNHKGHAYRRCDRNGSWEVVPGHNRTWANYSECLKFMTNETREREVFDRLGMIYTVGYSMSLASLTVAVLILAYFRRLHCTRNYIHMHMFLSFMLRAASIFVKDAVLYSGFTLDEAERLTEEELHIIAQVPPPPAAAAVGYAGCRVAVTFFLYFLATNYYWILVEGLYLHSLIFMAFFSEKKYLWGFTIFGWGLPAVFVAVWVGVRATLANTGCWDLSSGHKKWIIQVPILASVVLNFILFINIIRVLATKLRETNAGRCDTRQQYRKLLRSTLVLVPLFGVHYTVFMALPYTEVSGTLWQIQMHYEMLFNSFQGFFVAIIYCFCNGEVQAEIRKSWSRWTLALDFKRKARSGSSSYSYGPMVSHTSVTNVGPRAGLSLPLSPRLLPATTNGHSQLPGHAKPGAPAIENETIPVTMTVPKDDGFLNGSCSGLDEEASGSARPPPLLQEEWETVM
The assay is described as follows: cAMP increase in MC3T3-EI osteoblast-like cells (biological activity in vitro). In kind it is cell-based. The settings on record: 1 nM analogue, room temperature for 30 minutes, total cAMP by radioimmunoassay. The protocol:
The biological activity of the PTH(1-34) peptide analogues was evaluated by the method reported by Shigeno et al., The Journal of Biological Chemistry, 263, 18369-18377 (1988) with a modification. A culture solution (Hank's solution, containing 20 mM N-2-hydroxyethylpiperazine-N'-2-ethanesulfonic acid (HEPES), 0.1% bovine serum albumin and 0.5 mM isobutylmethyl-xanthine) containing a 0.01, 0.1, 1, 10 or 100 nM peptide derivative was added in an amount of 100 μl to a mouse cranial bone-derived osteoblast-like cell strain, MC3T3-EI cells, cultivated on a 96-well multiplate (Nunclon, Nunc), followed by reaction at room temperature for 30 minutes. After addition of 100 μl of 0.2N hydrochloric acid, the plate was immersed in boiling water for 2.5 minutes to extract cyclic adenosine monophosphate (cAMP) produced by a PTH receptor from the cells. The total cAMP in the culture solution and the cells was assayed using a commercial radioimmunoassay kit (cyclic AMP [^125 I] kit "Du Pont-Daiichi", Daiichi Kagaku Yakuhin). For the biological activity of the PTH(1-34) peptide derivatives, increases in cAMP caused by 1 nM analogues are shown in Table 3.

In the next assay the test system is Sprangue Dawley rats. The assay is described as follows: Increase in femur bone weight in rats after subcutaneous dosing. Type of assay: in vivo, rat. To be noted: 4.9 nmol/kg a day subcutaneously for two weeks; four-week-old male rats; dried right femur weight compared with vehicle group. As for the experimental part:
To four-week-old male Sprangue Dawley rats, the compounds synthesized in Example 1 […], and increases in the bone weight in their femurs were compared with that of a group to which a vehicle (0.15M NaCl, 0.001N hydrochloric acid and 2% heat-inactivated rat serum) was given. After administration, their right femurs were taken out, and the tissues around them were removed. Then, the femurs were dried at 100° C. for 3 hours and weighed.

Residues, ends and D or L forms follow the SMILES beside them.

In turn, `CC[C@H](C)[C@H](NC(=O)[C@H](CCC(=O)O)NC(=O)[C@H](CO)NC(=O)[C@@H](NC(=O)[C@@H](N)CO)C(C)C)C(=O)N[C@@H](CCC(N)=O)C(=O)N[C@@H](CC(C)C)C(=O)N[C@@H](CCSC)C(=O)N[C@@H](Cc1c[nH]cn1)C(=O)N[C@@H](CC(=O)O)C(=O)N[C@@H](CC(C)C)C(=O)NCC(=O)N[C@@H](CCCCN)C(=O)N[C@@H](Cc1c[nH]cn1)C(=O)N[C@@H](CC(C)C)C(=O)N[C@@H](CC(N)=O)C(=O)N[C@@H](CO)C(=O)N[C@@H](CCSC)C(=O)N[C@@H](CCC(=O)O)C(=O)N[C@@H](CCCNC(=N)N)C(=O)N[C@H](C(=O)N[C@@H](CCC(=O)O)C(=O)N[C@@H](Cc1c[nH]c2ccccc12)C(=O)N[C@@H](CC(C)C)C(=O)N[C@@H](CCCNC(=N)N)C(=O)N[C@@H](CCCCN)C(=O)N[C@@H](CCCCN)C(=O)N[C@@H](CC(C)C)C(=O)N[C@@H](CCC(N)=O)C(=O)N[C@@H](CC(=O)O)C(=O)N[C@H](C(=O)N[C@@H](Cc1c[nH]cn1)C(=O)N[C@@H](CC(N)=O)C(=O)N[C@@H](Cc1ccccc1)C(=O)O)C(C)C)C(C)C` [(3), [Asp^10] hPTH(1-34)] yielded a cAMP increase on PTH receptor of 0.60 pmol/well. Besides, the bone increase in the assay on Sprangue Dawley rats was found to be 26.1 mg.

In turn, `CC[C@H](C)[C@H](NC(=O)[C@H](CCC(=O)O)NC(=O)[C@H](CO)NC(=O)[C@@H](NC(=O)[C@@H](N)CO)C(C)C)C(=O)N[C@@H](CCC(N)=O)C(=O)N[C@@H](CC(C)C)C(=O)N[C@@H](CCSC)C(=O)N[C@@H](Cc1c[nH]cn1)C(=O)N[C@@H](CCC(=O)O)C(=O)N[C@@H](CC(C)C)C(=O)NCC(=O)N[C@@H](CCCCN)C(=O)N[C@@H](Cc1c[nH]cn1)C(=O)N[C@@H](CC(C)C)C(=O)N[C@@H](CC(N)=O)C(=O)N[C@@H](CO)C(=O)N[C@@H](CCSC)C(=O)N[C@@H](CCC(=O)O)C(=O)N[C@@H](CCCNC(=N)N)C(=O)N[C@H](C(=O)N[C@@H](CCC(=O)O)C(=O)N[C@@H](Cc1c[nH]c2ccccc12)C(=O)N[C@@H](CC(C)C)C(=O)N[C@@H](CCCNC(=N)N)C(=O)N[C@@H](CCCCN)C(=O)N[C@@H](CCCCN)C(=O)N[C@@H](CC(C)C)C(=O)N[C@@H](CCC(N)=O)C(=O)N[C@@H](CC(=O)O)C(=O)N[C@H](C(=O)N[C@@H](Cc1c[nH]cn1)C(=O)N[C@@H](CC(N)=O)C(=O)N[C@@H](Cc1ccccc1)C(=O)O)C(C)C)C(C)C` [(4), [Glu^10] hPTH(1-34)] returned a cAMP increase on PTH receptor of 1.81 pmol/well. In the assay with Sprangue Dawley rats, this compound yielded a bone increase of 31.1 mg.

Compound `CC[C@H](C)[C@H](NC(=O)[C@H](CCC(=O)O)NC(=O)[C@H](CO)NC(=O)[C@@H](NC(=O)[C@@H](N)CO)C(C)C)C(=O)N[C@@H](CCC(N)=O)C(=O)N[C@@H](CC(C)C)C(=O)N[C@@H](CCSC)C(=O)N[C@@H](Cc1c[nH]cn1)C(=O)N[C@@H](CC(=O)O)C(=O)N[C@@H](Cc1ccccc1)C(=O)NCC(=O)N[C@@H](CCCCN)C(=O)N[C@@H](Cc1c[nH]cn1)C(=O)N[C@@H](CC(C)C)C(=O)N[C@@H](CC(N)=O)C(=O)N[C@@H](CO)C(=O)N[C@@H](CCSC)C(=O)N[C@@H](CCC(=O)O)C(=O)N[C@@H](CCCNC(=N)N)C(=O)N[C@H](C(=O)N[C@@H](CCC(=O)O)C(=O)N[C@@H](Cc1c[nH]c2ccccc12)C(=O)N[C@@H](CC(C)C)C(=O)N[C@@H](CCCNC(=N)N)C(=O)N[C@@H](CCCCN)C(=O)N[C@@H](CCCCN)C(=O)N[C@@H](CC(C)C)C(=O)N[C@@H](CCC(N)=O)C(=O)N[C@@H](CC(=O)O)C(=O)N[C@H](C(=O)N[C@@H](Cc1c[nH]cn1)C(=O)N[C@@H](CC(N)=O)C(=O)N[C@@H](Cc1ccccc1)C(=O)O)C(C)C)C(C)C` [(5), [Asp^10, Phe^11] hPTH(1-34)] (H-SVSEIQLMHDFGKHLNSMERVEWLRKKLQDVHNF-OH) came in with a cAMP increase at PTH receptor of 2.58 pmol/well. This compound also yielded a bone increase with Sprangue Dawley rats of 20.4 mg.
